Assay results: the NIST ThermoML archive (doi:10.1016/j.jct.2018.02.003)
Values joined by “and” are separate entries in the source; they are usually repeats but may differ in a detail not shown here. Identical values can stand only once. Numbers after ± are expanded uncertainties.

Settings: Liquid; for speed of sound: Frequency=3 MHz, Single path-length method; for mass density: Vibrating tube method

COC(F)(C(F)(F)C(F)(F)F)C(F)(C(F)(F)F)C(F)(F)F (stereo not drawn)
Settings	mass density	speed of sound [m/s]
293.15 K, 100 kPa	1668.2 ± 0.8 kg/m3 and 1668.43 ± 0.98 kg/m3	644.5 ± 1.1
293.15 K, 1000 kPa	1670.8 ± 0.8 kg/m3	–
293.15 K, 5000 kPa	1681.9 ± 0.9 kg/m3	–
293.15 K, 10000 kPa	1694.8 ± 1 kg/m3	–
293.15 K, 15000 kPa	1706.6 ± 1.1 kg/m3	–
293.15 K, 20000 kPa	1717.6 ± 1.2 kg/m3	–
293.15 K, 25000 kPa	1727.9 ± 1.3 kg/m3	–
293.15 K, 30000 kPa	1737.7 ± 1.4 kg/m3	–
293.15 K, 35000 kPa	1746.9 ± 1.5 kg/m3	–
293.15 K, 40000 kPa	1755.6 ± 1.7 kg/m3	–
293.15 K, 45000 kPa	1764 ± 1.8 kg/m3	–
293.15 K, 50000 kPa	1772 ± 2 kg/m3	–
293.15 K, 55000 kPa	1779.7 ± 2.2 kg/m3	–
293.15 K, 60000 kPa	1787 ± 2.3 kg/m3	–
293.15 K, 65000 kPa	1794.1 ± 2.5 kg/m3	–
293.15 K, 70000 kPa	1800.9 ± 2.7 kg/m3	–
293.15 K, 80000 kPa	1814 ± 3 kg/m3	–
293.15 K, 90000 kPa	1826.3 ± 3.4 kg/m3	–
293.15 K, 100000 kPa	1837.8 ± 3.8 kg/m3	–
293.15 K, 110000 kPa	1848.8 ± 4.1 kg/m3	–
293.15 K, 120000 kPa	1859.3 ± 4.5 kg/m3	–
293.15 K, 130000 kPa	1869.3 ± 4.9 kg/m3	–
293.15 K, 140000 kPa	1878.8 ± 5.3 kg/m3	–
298.15 K, 100 kPa	1656.7 ± 0.8 kg/m3 and 1656.79 ± 0.98 kg/m3	629.44 ± 1.1
298.15 K, 1000 kPa	1659.4 ± 0.8 kg/m3	–
298.15 K, 5000 kPa	1671 ± 0.9 kg/m3	–
298.15 K, 10000 kPa	1684.4 ± 1 kg/m3	–
298.15 K, 15000 kPa	1696.6 ± 1 kg/m3	–
298.15 K, 20000 kPa	1708 ± 1.2 kg/m3	–
298.15 K, 25000 kPa	1718.6 ± 1.3 kg/m3	–
298.15 K, 30000 kPa	1728.6 ± 1.4 kg/m3	–
298.15 K, 35000 kPa	1738.1 ± 1.5 kg/m3	–
298.15 K, 40000 kPa	1747.1 ± 1.6 kg/m3	–
298.15 K, 45000 kPa	1755.6 ± 1.8 kg/m3	–
298.15 K, 50000 kPa	1763.8 ± 2 kg/m3	–
298.15 K, 55000 kPa	1771.7 ± 2.1 kg/m3	–
298.15 K, 60000 kPa	1779.3 ± 2.3 kg/m3	–
298.15 K, 65000 kPa	1786.5 ± 2.5 kg/m3	–
298.15 K, 70000 kPa	1793.4 ± 2.6 kg/m3	–
298.15 K, 80000 kPa	1806.7 ± 3 kg/m3	–
298.15 K, 90000 kPa	1819.1 ± 3.4 kg/m3	–
298.15 K, 100000 kPa	1831 ± 3.7 kg/m3	–
298.15 K, 110000 kPa	1842 ± 4.1 kg/m3	–
298.15 K, 120000 kPa	1852.7 ± 4.5 kg/m3	–
298.15 K, 130000 kPa	1862.8 ± 4.9 kg/m3	–
298.15 K, 140000 kPa	1872.5 ± 5.3 kg/m3	–
303.15 K, 100 kPa	1645.11 ± 0.98 kg/m3	614.76 ± 1.1
313.15 K, 100 kPa	1621.3 ± 0.8 kg/m3 and 1621.41 ± 0.97 kg/m3	585.65 ± 1.1
313.15 K, 1000 kPa	1624.5 ± 0.8 kg/m3	–
313.15 K, 5000 kPa	1637.7 ± 0.9 kg/m3	–
313.15 K, 10000 kPa	1652.7 ± 0.9 kg/m3	–
313.15 K, 15000 kPa	1666.3 ± 1 kg/m3	–
313.15 K, 20000 kPa	1678.8 ± 1.1 kg/m3	–
313.15 K, 25000 kPa	1690.4 ± 1.2 kg/m3	–
313.15 K, 30000 kPa	1701.4 ± 1.4 kg/m3	–
313.15 K, 35000 kPa	1711.6 ± 1.5 kg/m3	–
313.15 K, 40000 kPa	1721.2 ± 1.6 kg/m3	–
313.15 K, 45000 kPa	1730.5 ± 1.7 kg/m3	–
313.15 K, 50000 kPa	1739.2 ± 1.9 kg/m3	–
313.15 K, 55000 kPa	1747.6 ± 2.1 kg/m3	–
313.15 K, 60000 kPa	1755.5 ± 2.2 kg/m3	–
313.15 K, 65000 kPa	1763.3 ± 2.4 kg/m3	–
313.15 K, 70000 kPa	1770.7 ± 2.6 kg/m3	–
313.15 K, 80000 kPa	1784.8 ± 2.9 kg/m3	–
313.15 K, 90000 kPa	1797.9 ± 3.3 kg/m3	–
313.15 K, 100000 kPa	1810.2 ± 3.6 kg/m3	–
313.15 K, 110000 kPa	1822 ± 4 kg/m3	–
313.15 K, 120000 kPa	1832.9 ± 4.4 kg/m3	–
313.15 K, 130000 kPa	1843.5 ± 4.8 kg/m3	–
313.15 K, 140000 kPa	1853.5 ± 5.2 kg/m3	–
323.15 K, 100 kPa	1597.04 ± 0.97 kg/m3	557.04 ± 1.1
333.15 K, 100 kPa	1572.7 ± 0.8 kg/m3 and 1572.8 ± 0.96 kg/m3	529.01 ± 1.1
333.15 K, 1000 kPa	1576.5 ± 0.8 kg/m3	–
333.15 K, 5000 kPa	1592.3 ± 0.9 kg/m3	–
333.15 K, 10000 kPa	1609.9 ± 0.9 kg/m3	–
333.15 K, 15000 kPa	1625.7 ± 1 kg/m3	–
333.15 K, 20000 kPa	1639.8 ± 1.1 kg/m3	–
